Measured values: PubChem BioAssay (NCI)
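Assay format: 96-well plates, 48-hour exposure. The concentration for full growth arrest is given as TGI.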

How the values were obtained:
Test in all cases: NCI anticancer screen, dose series, 48 h
MDA-N = system: MDA-N
DU-145 prostate = system: DU-145 prostate
MOLT-4 leukemia = system: MOLT-4 leukemia
M14 melanoma = system: M14 melanoma
SK-OV-3 ovarian = system: SK-OV-3 ovarian
NCI-H226 lung = system: NCI-H226 lung
A498 renal = system: A498 renal
UACC-257 melanoma = system: UACC-257 melanoma
NCI-H23 lung = system: NCI-H23 lung
MDA-MB-435 = system: MDA-MB-435
BT-549 breast = system: BT-549 breast
SK-MEL-2 melanoma = system: SK-MEL-2 melanoma
HOP-62 NSCLC = system: HOP-62 NSCLC
PC-3 prostate = system: PC-3 prostate
U251 CNS = system: U251 CNS
OVCAR-5 ovarian = system: OVCAR-5 ovarian
HS 578T breast = system: HS 578T breast
SW-620 colon = system: SW-620 colon
SN12C renal = system: SN12C renal
ACHN renal = system: ACHN renal
SF-295 CNS = system: SF-295 CNS
UO-31 renal = system: UO-31 renal
UACC-62 melanoma = system: UACC-62 melanoma
A549 NSCLC = system: A549 NSCLC
K-562 leukemia = system: K-562 leukemia
HT29 colon = system: HT29 colon
OVCAR-4 ovarian = system: OVCAR-4 ovarian
CAKI-1 renal = system: CAKI-1 renal
LOX IMVI melanoma = system: LOX IMVI melanoma
T-47D breast = system: T-47D breast
EKVX NSCLC = system: EKVX NSCLC
NCI-H460 lung = system: NCI-H460 lung
SF-268 CNS = system: SF-268 CNS
NCI/ADR-RES ovarian = system: NCI/ADR-RES ovarian
KM12 colon = system: KM12 colon
OVCAR-8 ovarian = system: OVCAR-8 ovarian
HCC-2998 colon = system: HCC-2998 colon
HCT-116 colon = system: HCT-116 colon
HOP-92 NSCLC = system: HOP-92 NSCLC
IGROV1 ovarian = system: IGROV1 ovarian
NCI-H522 lung = system: NCI-H522 lung
OVCAR-3 ovarian = system: OVCAR-3 ovarian
MCF7 breast = system: MCF7 breast
TK-10 renal = system: TK-10 renal
786-0 renal = system: 786-0 renal
SF-539 CNS = system: SF-539 CNS
MDA-MB-231 breast = system: MDA-MB-231 breast
COLO 205 colon = system: COLO 205 colon
HL-60(TB) leukemia = system: HL-60(TB) leukemia
SK-MEL-5 melanoma = system: SK-MEL-5 melanoma
RXF 393 renal = system: RXF 393 renal
HCT-15 colon = system: HCT-15 colon
SNB-19 CNS = system: SNB-19 CNS
RPMI-8226 leukemia = system: RPMI-8226 leukemia
SNB-75 CNS = system: SNB-75 CNS
MALME-3M melanoma = system: MALME-3M melanoma
SR leukemia = system: SR leukemia
CCRF-CEM leukemia = system: CCRF-CEM leukemia
SK-MEL-28 melanoma = system: SK-MEL-28 melanoma

Nc1ccc2c(c1)S(=O)(=O)c1cc(N)ccc1-2
TGI (MDA-N): > 100 µM
TGI (DU-145 prostate): > 100 µM
TGI (MOLT-4 leukemia): > 100 µM
TGI (M14 melanoma): > 100 µM
TGI (SK-OV-3 ovarian): > 100 µM
TGI (NCI-H226 lung): > 100 µM
TGI (A498 renal): > 100 µM
TGI (UACC-257 melanoma): > 100 µM
TGI (NCI-H23 lung): > 100 µM
TGI (MDA-MB-435): > 100 µM
TGI (BT-549 breast): > 100 µM
TGI (SK-MEL-2 melanoma): > 100 µM
TGI (HOP-62 NSCLC): > 100 µM
TGI (PC-3 prostate): > 100 µM
TGI (U251 CNS): > 100 µM
TGI (OVCAR-5 ovarian): > 100 µM
TGI (HS 578T breast): > 100 µM
TGI (SW-620 colon): > 100 µM
TGI (SN12C renal): > 100 µM
TGI (ACHN renal): > 100 µM
TGI (SF-295 CNS): > 100 µM
TGI (UO-31 renal): > 100 µM
TGI (UACC-62 melanoma): > 100 µM
TGI (A549 NSCLC): > 100 µM
TGI (K-562 leukemia): > 100 µM
TGI (HT29 colon): > 100 µM
TGI (OVCAR-4 ovarian): > 100 µM
TGI (CAKI-1 renal): > 100 µM
TGI (LOX IMVI melanoma): > 100 µM
TGI (T-47D breast): > 100 µM
TGI (EKVX NSCLC): > 100 µM
TGI (NCI-H460 lung): > 100 µM
TGI (SF-268 CNS): > 100 µM
TGI (NCI/ADR-RES ovarian): > 100 µM
TGI (KM12 colon): > 100 µM
TGI (OVCAR-8 ovarian): > 100 µM
TGI (HCC-2998 colon): > 100 µM
TGI (HCT-116 colon): > 100 µM
TGI (HOP-92 NSCLC): > 100 µM
TGI (IGROV1 ovarian): > 100 µM
TGI (NCI-H522 lung): > 100 µM
TGI (OVCAR-3 ovarian): > 100 µM
TGI (MCF7 breast): > 100 µM
TGI (TK-10 renal): > 100 µM
TGI (786-0 renal): > 100 µM
TGI (SF-539 CNS): > 100 µM
TGI (MDA-MB-231 breast): > 100 µM
TGI (COLO 205 colon): > 100 µM
TGI (HL-60(TB) leukemia): > 100 µM
TGI (SK-MEL-5 melanoma): > 100 µM
TGI (RXF 393 renal): > 100 µM
TGI (HCT-15 colon): > 100 µM
TGI (SNB-19 CNS): > 100 µM

CC1OC(n2cnc3c(N)nc(Cl)nc32)C(C)(O)C1O (stereo not given)
TGI (MDA-N): > 25 µM
TGI (RPMI-8226 leukemia): > 25 µM
TGI (DU-145 prostate): > 25 µM
TGI (MOLT-4 leukemia): > 25 µM
TGI (M14 melanoma): > 25 µM
TGI (SK-OV-3 ovarian): > 25 µM
TGI (NCI-H226 lung): > 25 µM
TGI (A498 renal): > 25 µM
TGI (SNB-75 CNS): 15.2 µM
TGI (UACC-257 melanoma): > 25 µM
TGI (NCI-H23 lung): > 25 µM
TGI (MDA-MB-435): > 25 µM
TGI (BT-549 breast): > 25 µM
TGI (SK-MEL-2 melanoma): > 25 µM
TGI (HOP-62 NSCLC): > 25 µM
TGI (OVCAR-5 ovarian): > 25 µM
TGI (HS 578T breast): > 25 µM
TGI (SW-620 colon): > 25 µM
TGI (SN12C renal): > 25 µM
TGI (ACHN renal): > 25 µM
TGI (SF-295 CNS): > 25 µM
TGI (UO-31 renal): > 25 µM
TGI (UACC-62 melanoma): > 25 µM
TGI (MALME-3M melanoma): > 25 µM
TGI (A549 NSCLC): > 25 µM
TGI (K-562 leukemia): > 25 µM
TGI (HT29 colon): > 25 µM
TGI (OVCAR-4 ovarian): > 25 µM
TGI (CAKI-1 renal): > 25 µM
TGI (SR leukemia): > 25 µM
TGI (LOX IMVI melanoma): > 25 µM
TGI (T-47D breast): > 25 µM
TGI (EKVX NSCLC): > 25 µM
TGI (SF-268 CNS): > 25 µM
TGI (NCI/ADR-RES ovarian): > 25 µM
TGI (KM12 colon): > 25 µM
TGI (OVCAR-8 ovarian): > 25 µM
TGI (HCC-2998 colon): > 25 µM
TGI (HCT-116 colon): > 25 µM
TGI (HOP-92 NSCLC): > 25 µM
TGI (IGROV1 ovarian): > 25 µM
TGI (NCI-H522 lung): > 25 µM
TGI (OVCAR-3 ovarian): > 25 µM
TGI (MCF7 breast): > 25 µM
TGI (TK-10 renal): > 25 µM
TGI (786-0 renal): > 25 µM
TGI (SF-539 CNS): > 25 µM
TGI (MDA-MB-231 breast): > 25 µM
TGI (COLO 205 colon): > 25 µM
TGI (HL-60(TB) leukemia): > 25 µM
TGI (CCRF-CEM leukemia): > 25 µM
TGI (SK-MEL-5 melanoma): > 25 µM
TGI (RXF 393 renal): > 25 µM
TGI (HCT-15 colon): > 25 µM
TGI (SNB-19 CNS): > 25 µM

COc1ccc(-c2cc(-c3ccccc3)nc(N)n2)c(O)c1
TGI (MDA-N): > 100 µM
TGI (RPMI-8226 leukemia): 5.76 µM
TGI (MOLT-4 leukemia): > 100 µM
TGI (M14 melanoma): > 100 µM
TGI (SK-OV-3 ovarian): > 100 µM
TGI (NCI-H226 lung): > 100 µM
TGI (A498 renal): > 100 µM
TGI (SNB-75 CNS): > 100 µM
TGI (UACC-257 melanoma): > 100 µM
TGI (NCI-H23 lung): > 100 µM
TGI (MDA-MB-435): > 100 µM
TGI (SK-MEL-28 melanoma): > 100 µM
TGI (BT-549 breast): > 29.3 µM
TGI (SK-MEL-2 melanoma): > 100 µM
TGI (HOP-62 NSCLC): > 100 µM
TGI (PC-3 prostate): > 100 µM
TGI (U251 CNS): > 100 µM
TGI (OVCAR-5 ovarian): > 100 µM
TGI (HS 578T breast): > 100 µM
TGI (SW-620 colon): > 100 µM
TGI (SN12C renal): > 100 µM
TGI (ACHN renal): > 100 µM
TGI (SF-295 CNS): > 100 µM
TGI (UO-31 renal): > 23.3 µM
TGI (UACC-62 melanoma): > 100 µM
TGI (MALME-3M melanoma): > 100 µM
TGI (A549 NSCLC): > 100 µM
TGI (K-562 leukemia): > 22.9 µM
TGI (HT29 colon): > 100 µM
TGI (OVCAR-4 ovarian): > 100 µM
TGI (SR leukemia): > 26.2 µM
TGI (LOX IMVI melanoma): > 100 µM
TGI (T-47D breast): > 100 µM
TGI (EKVX NSCLC): > 100 µM
TGI (NCI-H460 lung): > 100 µM
TGI (SF-268 CNS): > 100 µM
TGI (NCI/ADR-RES ovarian): > 100 µM
TGI (KM12 colon): > 100 µM
TGI (OVCAR-8 ovarian): > 100 µM
TGI (HCC-2998 colon): > 100 µM
TGI (HCT-116 colon): > 100 µM
TGI (HOP-92 NSCLC): > 100 µM
TGI (IGROV1 ovarian): > 100 µM
TGI (NCI-H522 lung): > 100 µM
TGI (OVCAR-3 ovarian): > 100 µM
TGI (MCF7 breast): > 100 µM
TGI (TK-10 renal): > 100 µM
TGI (786-0 renal): > 100 µM
TGI (SF-539 CNS): > 100 µM
TGI (MDA-MB-231 breast): > 100 µM
TGI (COLO 205 colon): > 100 µM
TGI (HL-60(TB) leukemia): > 20.6 µM
TGI (CCRF-CEM leukemia): > 100 µM
TGI (SK-MEL-5 melanoma): > 100 µM
TGI (RXF 393 renal): > 100 µM
TGI (HCT-15 colon): > 100 µM
TGI (SNB-19 CNS): > 100 µM
